Data: patent publication US11192865B2, “Benzosulfonyl compounds” (Vivace Therapeutics, Inc., priority 2017, dated 2021)

system: 8XTBD luciferase reporter; assay: YAP Reporter Assay; format: cell-based; settings: Homo sapiens, HEK-293T; HEK293T cells stably transfected with 8XTBD luciferase reporter and pRLTK; 24-hr incubation; starting from 3 μM, 1:3 dilution, 10 points; read-out: Firefly Luciferase IC50
How it was run: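 HEK293T cells stably carrying the 8XTBD firefly luciferase reporter and TK-renilla control received compounds at a 10-point, 1:3 series from 3 μM (final) in quadruplicate. After 24 h at 37° C, Dual-Glo luminescence was read. IC50 and maximal inhibition were reported separately for firefly and renilla signals.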

Going from `CNS(=O)(=O)c1ccc(NC2CCCCC2)c(-c2nnn(C3CCNC3)n2)c1` (stereo not drawn) [Compound 35, 4-(cyclohexylamino)-N-methyl-3-(2-(pyrrolidin-3-yl)-2H-tetrazol-5-yl)benzenesulfonamide] to `CNS(=O)(=O)c1ccc(NC2CCCCC2)c(-c2nnn(C3CCC3)n2)c1` [Compound 17, 3-(2-cyclobutyl-2H-tetrazol-5-yl)-4-(cyclohexylamino)-N-methylbenzene sulfonamide], the IC50 falls from greater than 3000 nM to no more than 100 nM.

`CNS(=O)(=O)c1ccc(Nc2ccc(C(F)(F)F)cc2)c(-c2nnn(CCOCc3ccccc3)n2)c1` [Compound 115, 3-(2-(2-(benzyloxy)ethyl)-2H-tetrazol-5-yl)-N-methyl-4-((4-(trifluoromethyl)phenyl)amino)benzenesulfonamide] and `CNS(=O)(=O)c1ccc(Nc2ccc(C(F)(F)F)cc2)c(-c2nnn(Cc3ccccc3F)n2)c1` [Compound 137, 3-[2-[(2-Fluorophenyl)methyl]tetrazol-5-yl]-N-methyl-4-[4-(trifluoromethyl)anilino]benzene-sulfonamide] cannot be ordered by IC50: 100 to 1000 nM for the first, no more than 100 nM for the second.

`CNS(=O)(=O)c1ccc(NC2CCCCC2)c(-c2nnn(CCO)n2)c1` [Compound 44, 4-(cyclohexylamino)-3-(2-(2-hydroxyethyl)-2H-tetrazol-5-yl)-N-methylbenzenesulfonamide] and `CCCn1nnc(-c2cc(S(=O)(=O)NC)ccc2NC2CCCCC2)n1` [Compound 15, 4-(cyclohexylamino)-N-methyl-3-(2-propyl-2H-tetrazol-5-yl)benzenesulfonamide] cannot be ordered by IC50: 100 to 1000 nM for the first, no more than 100 nM for the second.

`CNS(=O)(=O)c1ccc(Nc2ccc(C(F)(F)F)cc2)c(-c2nnc(N)o2)c1` [Compound 133, 3-(5-amino-1,3,4-oxadiazol-2-yl)-N-methyl-4-[4-(trifluoromethyl)anilino]benzene-sulfonamide] and `CNS(=O)(=O)c1ccc(Nc2ccc(OC(F)(F)F)cc2)c(-c2nnn(C)n2)c1` [Compound 103, N-methyl-3-(2-methyl-2H-tetrazol-5-yl)-4-((4-(trifluoromethoxy)phenyl)amino)benzenesulfonamide] cannot be ordered by IC50: 100 to 1000 nM for the first, no more than 100 nM for the second.

First: CNS(=O)(=O)c1ccc(NC2CCCCC2)c(-c2nnn(CC(C)C)n2)c1 [Compound 27, 4-(cyclohexylamino)-3-(2-isobutyl-2H-tetrazol-5-yl)-N-methylbenzenesulfonamide]
Second: CC(C)(C)NS(=O)(=O)c1ccc(NC2CCCCC2)c(-c2nnn(CCO)n2)c1 [Compound 2, N-(tert-butyl)-4-(cyclohexylamino)-3-(2-(2-hydroxyethyl)-2H-tetrazol-5-yl)benzenesulfonamide]
The IC50 of the first is lower: 100 to 1000 nM for the first, greater than 3000 nM for the second. The first is the more potent here.

`CNS(=O)(=O)c1ccc(N[C@H]2CC[C@@H](C(F)(F)F)CC2)c(-c2cn(C)cn2)c1` [Compound 150, N-methyl-3-(1-methyl-1H-imidazol-4-yl)-4-(((1s,4s)-4-(trifluoromethyl)cyclohexyl)amino) benzenesulfonamide] and `CNS(=O)(=O)c1ccc(N[C@H]2CC[C@H](C(F)(F)F)CC2)c(-c2cn(C)cn2)c1` [Compound 151, N-methyl-3-(1-methyl-1H-imidazol-4-yl)-4-(((1r,4r)-4-(trifluoromethyl)cyclohexyl)amino) benzenesulfonamide] cannot be ordered by IC50: no more than 100 nM for the first, no more than 100 nM for the second.

`CNS(=O)(=O)c1ccc(Nc2cc(F)ccc2F)c(-c2nnn(C)n2)c1` [Compound 110, 4-((2,5-difluorophenyl)amino)-N-methyl-3-(2-methyl-2H-tetrazol-5-yl)benzenesulfonamide] and `CNS(=O)(=O)c1ccc(Nc2cccc(F)c2)c(-c2nnn(C)n2)c1` [Compound 117, 4-((3-fluorophenyl)amino)-N-methyl-3-(2-methyl-2H-tetrazol-5-yl)benzenesulfonamide] cannot be ordered by IC50: no more than 100 nM for the first, 100 to 1000 nM for the second.

`CNS(=O)(=O)c1ccc(NC2CCCCC2)c(-c2nnn(C3CCN(S(C)(=O)=O)C3)n2)c1` (stereo not drawn) [Compound 43, 4-(cyclohexylamino)-N-methyl-3-(2-(1-(methylsulfonyl)pyrrolidin-3-yl)-2H-tetrazol-5-yl)benzenesulfonamide] and `CNS(=O)(=O)c1ccc(NC2CCCCC2)c(-c2nnn(C3CCCN(S(C)(=O)=O)C3)n2)c1` (stereo not drawn) [Compound 62, 4-(cyclohexylamino)-N-methyl-3-(2-(1-(methylsulfonyl)piperidin-3-yl)-2H-tetrazol-5-yl)benzenesulfonamide] cannot be ordered by IC50: greater than 3000 nM for the first, greater than 3000 nM for the second.

Going from `CNS(=O)(=O)c1ccc(NC2CCCCC2)c(-c2cncnc2)c1` [Compound 55, 4-(cyclohexylamino)-N-methyl-3-(pyrimidin-5-yl)benzenesulfonamide] to `CNS(=O)(=O)c1ccc(NC2CCCCC2)c(-c2cn(C)cn2)c1` [Compound 82, 4-(cyclohexylamino)-N-methyl-3-(1-methyl-1H-imidazol-4-yl)benzenesulfonamide], the IC50 falls from greater than 3000 nM to no more than 100 nM. The second is the more potent here.

Compared with `CNS(=O)(=O)c1ccc(NC2CCCCC2)c(-c2nnnn2C2CCCN(C(=O)OC(C)(C)C)C2)c1` (stereo not drawn) [Compound 60, tert-butyl 3-(5-(2-(cyclohexylamino)-5-(N-methylsulfamoyl)phenyl)-1H-tetrazol-1-yl)piperidine-1-carboxylate], `CNS(=O)(=O)c1ccc(NC2CCCCC2)c(-c2nnnn2C2CCCNC2)c1` (stereo not drawn) [Compound 75, 4-(cyclohexylamino)-N-methyl-3-(1-(piperidin-3-yl)-1H-tetrazol-5-yl)benzenesulfonamide] is lower in IC50: greater than 3000 nM for the first, 1000 to 3000 nM for the second.

First: CNS(=O)(=O)c1ccc(Nc2ccccc2C(F)(F)F)c(-c2nnn(C)n2)c1 [Compound 93, N-methyl-3-(2-methyl-2H-tetrazol-5-yl)-4-((2-(trifluoromethyl)phenyl)amino)benzenesulfonamide]
Second: CNS(=O)(=O)c1ccc(Nc2ccc(Oc3ccccc3)cc2)c(-c2nnn(C)n2)c1 [Compound 130, N-methyl-3-(2-methyltetrazol-5-yl)-4-(4-phenoxyanilino) benzenesulfonamide]
The IC50 of the first is higher: greater than 3000 nM for the first, 1000 to 3000 nM for the second.

Compared with `CS(=O)(=O)c1ccc(NC2CCCCC2)c(-n2cccn2)c1` [Compound 10, N-cyclohexyl-4-(methylsulfonyl)-2-(1H-pyrazol-1-yl)aniline], `Cn1ccc(-c2cc(S(C)(=O)=O)ccc2NC2CCCCC2)n1` [Compound 8, N-cyclohexyl-2-(1-methyl-1H-pyrazol-3-yl)-4-(methylsulfonyl)aniline] is lower in IC50: 1000 to 3000 nM for the first, 100 to 1000 nM for the second.

`CNS(=O)(=O)c1ccc(NC2CCCCC2)c(-c2nnn(-c3cccnc3)n2)c1` [Compound 45, 4-(cyclohexylamino)-N-methyl-3-(2-(pyridin-3-yl)-2H-tetrazol-5-yl)benzenesulfonamide] and `CNS(=O)(=O)c1ccc(NC2CCCCC2)c(-c2nnn(Cc3cccnc3)n2)c1` [Compound 29, 4-(cyclohexylamino)-N-methyl-3-(2-(pyridin-3-ylmethyl)-2H-tetrazol-5-yl)benzenesulfonamide] cannot be ordered by IC50: no more than 100 nM for the first, no more than 100 nM for the second.

First: CNS(=O)(=O)c1ccc(NC2CCCCC2)c(-c2ncccc2C)c1 [Compound 78, 4-(cyclohexylamino)-N-methyl-3-(3-methylpyridin-2-yl)benzenesulfonamide]
Second: CNc1ccnc(-c2cc(S(=O)(=O)NC)ccc2NC2CCCCC2)c1 [Compound 88, 4-(cyclohexylamino)-N-methyl-3-(4-(methylamino)pyridin-2-yl)benzenesulfonamide]
The IC50 of the first is higher: greater than 3000 nM for the first, no more than 100 nM for the second.

Going from `CNS(=O)(=O)c1ccc(Nc2cccc(C(F)(F)F)c2)c(-c2nnnn2C)c1` [Compound 97, N-methyl-3-(1-methyl-1H-tetrazol-5-yl)-4-((3-(trifluoromethyl)phenyl)amino)benzenesulfonamide] to `CNS(=O)(=O)c1ccc(Nc2cccc(SC(F)(F)F)c2)c(-c2cn(C)cn2)c1` [Compound 141, N-methyl-3-(1-methylimidazol-4-yl)-4-[3-(trifluoromethylsulfanyl)anilino] benzenesulfonamide], the IC50 falls from greater than 3000 nM to no more than 100 nM.

`CNS(=O)(=O)c1ccc(NC2CCCCC2)c(-n2nccn2)c1` [Compound 81, 4-(Cyclohexylamino)-N-methyl-3-(2H-1,2,3-triazol-2-yl)benzenesulfonamide] and `CNS(=O)(=O)c1ccc(NC2CCCCC2)c(-c2cn(C)nn2)c1` [Compound 58, 4-(cyclohexylamino)-N-methyl-3-(1-methyl-1H-1,2,3-triazol-4-yl)benzenesulfonamide] cannot be ordered by IC50: no more than 100 nM for the first, no more than 100 nM for the second.

`CNS(=O)(=O)c1ccc(NC2CCCCC2)c(-c2ccn(C)n2)c1` [Compound 57, 4-(cyclohexylamino)-N-methyl-3-(1-methyl-1H-pyrazol-3-yl)benzenesulfonamide] and `CNS(=O)(=O)c1ccc(NC2CCCCC2)c(-c2cccc(N)n2)c1` [Compound 76, 3-(6-aminopyridin-2-yl)-4-(cyclohexylamino)-N-methylbenzenesulfonamide] cannot be ordered by IC50: no more than 100 nM for the first, 100 to 1000 nM for the second.

`CNS(=O)(=O)c1ccc(NC2CCC(F)(F)CC2)c(-c2nnn(C)n2)c1` [Compound 72, 4-((4,4-difluorocyclohexyl)amino)-N-methyl-3-(2-methyl-2H-tetrazol-5-yl)benzenesulfonamide] and `CNS(=O)(=O)c1ccc(NC2CCCCC2)c(-c2noc(C)n2)c1` [Compound 48, 4-(cyclohexylamino)-N-methyl-3-(5-methyl-1,2,4-oxadiazol-3-yl)benzene sulfonamide] cannot be ordered by IC50: no more than 100 nM for the first, no more than 100 nM for the second.

`CNS(=O)(=O)c1ccc(Nc2cccc(Oc3ccccc3)c2)c(-c2nnn(C)n2)c1` [Compound 134, N-methyl-3-(2-methyltetrazol-5-yl)-4-(3-phenoxyanilino)benzenesulfonamide] and `CNS(=O)(=O)c1ccc(Nc2cc(C(F)(F)F)cc(C(F)(F)F)c2)c(-c2cn(C)cn2)c1` [Compound 146, 4-[3,5-Bis(trifluoromethyl)anilino]-N-methyl-3-(1-methylimidazol-4-yl)benzenesulfonamide] fall in the same range of IC50: 100 to 1000 nM for the first, 100 to 1000 nM for the second.

Work on `CS(=O)(=O)c1ccc(NC2CCCCC2)c(-c2nn[nH]n2)c1` [Compound 4, N-cyclohexyl-4-(methylsulfonyl)-2-(2H-tetrazol-5-yl)aniline] yielded an IC50 greater than 3000 nM.
